Source: patent publication US20180318383A1, “PEPTIDE HAVING NEURONAL LOSS PREVENTION AND REGENERATION EFFECTS, AND COMPOSITION CONTAINING SAME” (GEMVAX & KAEL CO., LTD., priority 2015, published 2018)

How the values were obtained:
Format in all cases: cell-based, rat
[1] = tested on: primary cultured cortical nerve; assay: Intracellular signaling proteins in damaged neurons; settings: Aβ25-35 + PEP1
Experimental: A primary cultured cortical nerve was obtained from the cerebral cortex of the fetal rat on day 16 of the embryonic period. Briefly, the brain was rapidly removed from the rat, and placed in a petri dish containing cold phosphate-buffered physiological saline (HBSS). Single cells were isolated from the cerebral cortex, and added into a previously poly-L-lysine-coated Corning dish with a diameter of 100 mm, or a glass coverslip was placed in a 6- or 24-well plate. The cultured cells were cultured in DMEM (high glucose).
Two days after the cells were added, non-neuronal cells were removed through treatment of 5 μM cytosine arabinoside for 24 hours. Only the mature culture (7 days in the test tube) was used in this experiment. Approximately 79.7% of a group of neurons was obtained from the neurons of a primary cortex. […]

[2] = tested on: NSCs; assay: NSC proliferation (BrdU and CFU assays); settings: 48 hours, BrdU
Experimental: NSCs were treated with different concentrations of PEP1 and 20 μM Aβ25-30 for 48 hours. Afterward, NSCs were cultured in bromodeoxyuridine (BrdU)-labeled media for 5 hours and observed using a kit. Cell division was evaluated by measuring absorbance at 370 nm and reference absorbance at 492 nm. All results were normalized based on a cell-free well.
A CFU assay was carried out by the following method. Briefly, 0.25×10^5 NSCs were plated in a 6-well plate, and treated with 20 μM Aβ25-30 and then with PEP1 at 1, 10 or 50 μM for 48 hours. The cells were washed with DPBS, and then the medium was exchanged with a fresh cell culture medium. Fourteen days later, the cells were washed again with DPBS, and stained with 0.5% crystal violet dissolved in methanol for 30 minutes at room temperature. Following staining, the plate was washed with DPBS and then dried. The number of colonies was observed using a stereoscopic microscope, and among these colonies, those smaller than 2 mm or faintly stained were removed.

[3] = tested on: NSCs; assay: Mitochondria cell membrane potential (JC-1); settings: 20 μM Aβ25-35 + PEP1 1, 10, 50 μM, 48 hours
Experimental: NSCs were plated in a 96-well plate at a density of 5×10^5 cells/well. The cells were treated with 20 μM Aβ25-30 and each concentration of PEP1 (1, 10 or 50 μM) at 37° C. for 48 hours.
The mitochondria cell membrane potential was measured using a JC-1 mitochondria cell membrane potential observation kit. The mitochondria cell membrane potential was observed using an ELISA reader. […] By observing dead cells or unhealthy cells at an FITC wavelength, it was confirmed that JC-1 is in a monomer state.

[4] = tested on: NSCs; assay: ROS production in NSCs (DCFH-DA staining); settings: 20 μM Aβ25-35 + PEP1, 48 hours, DCF fluorescence
Experimental: NSCs were treated with 20 μM Aβ25-30 for 48 hours and stained with DCFH-DA for 15 minutes to measure ROS. NSCs were treated with a varying concentration of PEP1 and 20 μM Aβ25-30 for 48 hours. After culturing, the cells were stained with 10 μM DCFH-DA at 37° C. for 15 minutes and washed with PBS three times. DCFH-DA freely passed through the cell membrane, and then was degraded into DCF by an esterase present in the cells. Therefore, a DCF fluorescent intensity refers to an intracellular hydrogen peroxide (ROS) level. DCF accumulation was evaluated using a reader according to an absorbance at 490 nm and a reference absorbance at 690 nm. Flow cytometry was observed and analyzed using an Accuri C6 flow cytometer.

[5] = tested on: NSCs; assay: Oxidative mitochondrial DNA damage (8-OHdG ELISA); settings: 20 μM Aβ25-35 + PEP1
Experimental: The oxidative DNA damage in the mitochondria was observed using an 8-OHdG ELISA kit. The mitochondria DNA was obtained using a genomic DNA isolation kit. 8-OHdG monoclonal antibodies were added to samples and a control group, and then corresponding HRP-attached secondary antibodies were added thereto. The samples were quantified using 8-OHdG and observed by measuring absorbance at 450 nm.

## EARPALLTSRLRFIPK (homo sapiens) [PEP1, hTERT-derived peptide consisting of 16 amino acids, telomerase location [611-626]]
[1]
  apoptosis-associated proteins: a low amount
  proliferation-associated proteins: a large amount
[2]; 20 μM Aβ25-35 + PEP1 up to 100 μM, vs 20 μM Aβ25-35 only, CFU
  proliferation of NSCs: gradually increased
[2]; NSCs, PEP1 alone 0-200 μM, up to 100 μM
  proliferation: not influenced
[3]
  mitochondria cell membrane potential: restored the cell membrane potential up to a level in a normal range
[4]
  amount of ROS induced by Aβ25-35: significantly reduces
[5]
  oxidative mitochondrial DNA damage: effectively decreased
